# In patent US8410152B2 (Max-Planck-Gesellschaft zur Forderung der Wissenschaften e. …, priority 2006, dated 2013):
# Read-outs that look alike come from different tables or passages of the source.
# How the values were obtained:
# [1] = system: uninduced N2A cells; type: cell-based; conditions: cell death as percent of LDH released into medium vs total LDH, compound 10 μM
# Protocol: Neurotoxicity assay: Neurotoxicity was assessed using an LDH (lactate dehydrogenase) assay kit (Roche, Mannheim, Germany) according to the manufacturer's specifications. In the viability assay the aggregation inhibitor compound was added at a final concentration of 10 μM to uninduced N2A cells. The activity of LDH was measured spectrophotometrically at 492 nm. Cell death was calculated as percent of LDH released into medium, compared to total LDH obtained after total cell lysis.
# [2] = system: N2a/K18ΔK280 cells; experiment: Tau aggregation and inhibition assay in cells (ThS staining); type: cell-based; conditions: for inhibition at 10 µM: 120 h, read-out: Inhibition in cells
# Protocol: Selection of an N2a, Tet-On, G418-resistant cell line: N2a cells were cotransfected with both the pUHD172-1 plasmid (encoding the rtTA, obtained from H. Bujard, Heidelberg) and pEU-1 plasmid (encoding G418 resistance, a derivative of pRc/CMV, Invitrogen) (ratio 20:1; 1 μg/well of 6-well plates) using the DOTAP transfection reagent (Roche, Basel, CH). The cells were cultured in Eagle's Minimum Essential Medium (MEM) supplemented with 10% defined fetal bovine serum and subjected to G418 (600 μg/ml) and selection. The cells were fed with fresh media every 4 days for 3-4 weeks when single colonies appeared. Clones were tested for the induction level by transient transfection of pUHG 16-3 plasmid and the induction of β-galactosidase was measured.
# Generation of inducible Tet-On cell lines: The DNA fragments encoding the appropriate tau constructs (K18WT, K18ΔK280, K18/ΔK280/PP) were inserted into the bidirectional vector pBI-5 between ClaI and SalI restriction sites (pBI-5 is an unpublished derivative of pBI-2, Baron et al., 1995). The pBI-5/K18-derived plasmids with pX343 (plasmid encoding the hygromycin resistance) were used for cotransfection of N2a/Tet-On, G418-resistant cells with the aid of DOTAP (20:1 plasmid ratio; 1 μg/well of 6-well plates). The cells were seeded at 4×10^5 cells per well. On the following day cells were transferred to 100-mm dishes and selected with 100 μg/ml of hygromycin and 600 μg/ml of G418. Clonal cell lines were screened for the inducible expression of K18 derivatives by measuring luciferase activity with the luciferase assay and immunofluorescence for tau protein with the polyclonal pan-tau antibody K9JA.
# Induction of K18-derivatives in Tet-On N2a cells: The inducible N2a/K18-derivatives cells were cultured in MEM medium supplemented with 10% fetal calf serum, 2 mM glutamine and 0.1% nonessential amino acids. The expression of K18 constructs was induced by adding 1 μg doxycyclin (Dox) per 1 ml medium. The induction was continued for 7-11 days, the medium was changed 3 times (always complemented with doxycyclin). For tau solubility assays the cells were collected by pelleting during centrifugation at 1000×g for 5 min. The levels and solubility of tau K18/ΔK280 were determined following Greenberg and Davies (1990). The cells were homogenized (DIAX900, Heidolph, Schwabach, Germany) in 10 vol (w/v) of buffer consisting of 10 mM Tris-HCl (pH 7.4), 0.8 M NaCl, 1 mM EGTA, and 10% sucrose. The homogenate was spun for 20 min at 20000×g, and the supernatant was retained. The pellet was re-homogenized in 5 vol of homogenization buffer and re-centrifuged. Both supernatants were combined, brought to 1% N-laurylsarkosinate (w/v) and incubated for 1 hr at room temperature while shaking, followed by centrifugation at 100 000×g for 1 hr. The sarkosyl-insoluble pellets were resuspended in 50 mM Tris-HCl (pH 7.4), 0.5 ml per 1 g of starting material. The supernatant and sarkosyl-insoluble pellet samples were analyzed by Western blotting. The amount of material loaded for supernatant and sarkosyl-insoluble pellet represented about 0.5% and 15% of the total material present in the supernatant and pellet respectively (the ratio between supernatant and sarkosyl insoluble pellet was always 1:30). For quantification of tau levels in each fraction, the Western blots were probed with pan-tau antibody K9JA and analyzed by densitometry (LAS 3000 and AIDA software, Raytest, Straubenhardt, Germany).
# Quantitation of tau aggregation in cells by Thioflavin S (ThS) staining: Tet-On inducible undifferentiated N2a cells were treated with 1 μg/ml doxycyclin for 5, 7 or 9 days in a culture dish. After that the cells were trypsinized and transferred to coverslips and incubated overnight. The cells on the coverslips were fixed with 4% paraformaldehyde in PBS for 15 min, then permeabilized with 80% MeOH for 6 min at −20° C., and incubated with 0.1% Thioflavin S for 5 min and washed three times in ethanol (50%). […]
# [3] = target: tau construct K19 (Homo sapiens, UniProt P10636); experiment: Thioflavine S (ThS) assay for aggregation of tau; type: biochemical
# Chain of tau construct K19 (P10636 with tags, fused parts or gaps isoform P10636-2 limits assumed): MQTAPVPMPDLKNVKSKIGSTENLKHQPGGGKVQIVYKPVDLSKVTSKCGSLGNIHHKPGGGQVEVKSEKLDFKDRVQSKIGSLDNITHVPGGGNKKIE
# Protocol: Thioflavine S (ThS) Assay for aggregation of tau: 10 μM of the tau construct K19 were incubated with compounds in a concentration range from 1 nM up to 200 μM in the presence of 2.5 μM heparin in 50 mM NH4Ac buffer over night at 37° C. After addition of 20 μM ThS the signal was measured at 521 nm (emission) at an excitation wavelength of 440 nm. The results of this assay are presented in the IC50 column and DC50 column of Table 1 below.
# [4] = N2a/K18ΔK280 cells, compound 10 μM with doxycyclin, 5 days, ThS-positive cells scored
# [5] = 10 μM tau construct K19, 2.5 μM heparin, ThS fluorescence, read-out: DC50
# [6] = 10 μM tau construct K19, 2.5 μM heparin, over night at 37° C., ThS fluorescence, read-out: ID50 (the source's name)
Compound,"DC50 [3, 5]","IC50 [3, 6]",LDH [1],"inhibition at 10 µM [2, 4]",inhibition at 10 µM [2],"Inhibition in cells (result in words: cytotoxicity) ([2]; N2a/K18ΔK280 cells, compound 10 μM, 5 days)",IC50 [3],"DC50 ([3]; 10 μM tau construct K19, 2.5 μM heparin, ThS fluorescence)"
"O=C(NNc1nc(-c2ccc(N3CCCC3)cc2)cs1)c1cccnc1 [Comp. 10, N′-[4-(4-pyrrolidin-1-ylphenyl)-1,3-thiazol-2-yl]nicotinohydrazide]",1.4 µM,2 µM,12.5%,62.5%,,,,
"O=C(NNc1nc(-c2ccc([N+](=O)[O-])cc2)cs1)c1ccc2c(c1)OCO2 [Comp. 13, N′-[4-(4-nitrophenyl)-1,3-thiazol-2-yl]-1,3-benzodioxole-5-carbohydrazide]",0.7 µM,3.9 µM,9.3%,,66.1%,,,
"COc1cccc(-c2csc(NNC(=O)c3ccncc3)n2)c1 [Comp. 35, N′-[4-(3-methoxyphenyl)-1,3-thiazol-2-yl]isonicotinohydrazide]",> 200 µM,> 200 µM,3.2%,,,,,
"O=C(CCc1ccccc1)NNc1nc(-c2ccc(Br)cc2)cs1 [Comp. 36, N′-[4-(4-bromophenyl)-1,3-thiazol-2-yl]-3-phenylpropanohydrazide]",> 200 µM,> 200 µM,3.3%,,,,,
"O=C(NNc1nc(-c2ccc(Br)cc2)cs1)c1ccc2c(c1)OCO2 [Comp. 38, N′-[4-(4-bromophenyl)-1,3-thiazol-2-yl]-1,3-benzodioxole-5-carbohydrazide]",> 200 µM,> 200 µM,4.6%,,,,,
"O=C(NNc1nc(-c2ccc(Br)cc2)cs1)c1ccc(F)cc1 [Comp. 40, N′-[4-(4-bromophenyl)-1,3-thiazol-2-yl]-4-fluorobenzohydrazide]",> 200 µM,> 200 µM,4.9%,,,,,
"O=C(NNc1nc(-c2ccc(Br)cc2)cs1)c1ccc2[nH]cnc2c1 [Comp. 43, N′-[4-(4-bromophenyl)-1,3-thiazol-2-yl]-1H-benzimidazole-5-carbohydrazide]",31.7 µM,> 200 µM,11.5%,,,,,
"O=C(NNc1nc2c(s1)Cc1ccccc1-2)c1ccc2c(c1)OCO2 [Comp. 44, N′-8H-indeno[1,2-d][1,3]thiazol-2-yl-1,3-benzodioxole-5-carbohydrazide]",> 200 µM,> 200 µM,18.8%,,,,,
"O=C(NNc1nc(-c2ccccc2)cs1)c1ccc2c(c1)OCO2 [Comp. 45, N′-(4-phenyl-1,3-thiazol-2-yl)-1,3-benzodioxole-5-carbohydrazide]",> 200 µM,> 200 µM,22.6%,,,,,
"CC(C)(C)c1csc(NNC(=O)c2ccc(Cl)cc2)n1 [Comp. 48, N′-(4-tert-butyl-1,3-thiazol-2-yl)-4-chlorobenzohydrazide]",> 200 µM,> 200 µM,48.1%,,,,,
"COc1ccc(-c2csc(NNC(=O)N3CCCCC3)n2)cc1 [Comp. 49, N′-[4-(4-methoxyphenyl)-1,3-thiazol-2-yl]piperidine-1-carbohydrazide]",> 200 µM,> 200 µM,−3.9%,,,Cytotoxic at 5 d,,
"O=C(NNc1nc(-c2ccc3ccccc3c2)cs1)c1ccc(C(F)(F)F)cc1 [Comp. 50, N′-[4-(2-naphthyl)-1,3-thiazol-2-yl]-4-(trifluoromethyl)benzohydrazide]",,,−7.6%,52.6%,,,,
"COc1cc(-c2csc(NNC(=O)c3ccc(C(F)(F)F)cc3)n2)cc(OC)c1O [Comp. 51, N′-[4-(4-hydroxy-3,5-dimethoxyphenyl)-1,3-thiazol-2-yl]-4-(trifluoromethyl)benzohydrazide]",> 200 µM,189 µM,−10.4%,42.6%,,,,
"O=C(NNc1nc2c(s1)Cc1ccccc1-2)c1cc2ccccc2[nH]1 [Comp. 52, N′-8H-indeno[1,2-d][1,3]thiazol-2-yl-1H-indole-2-carbohydrazide]",,,−9.6%,,53.2%,,49.4 µM,89.1 µM
"O=C(NNc1nc(-c2ccc(N3CCCC3)cc2)cs1)c1ccc(F)nc1 [Comp. 75, 6-fluoro-N′-[4-(4-pyrrolidin-1-ylphenyl)-1,3-thiazol-2-yl]nicotinohydrazide]",44.6 µM,42.1 µM,12.2%,,,,,

# Further lines, with some results ahead:
"DC50 [3, 5]","IC50 [3, 6]",Compound,LDH [1],"inhibition at 10 µM [2, 4]",inhibition at 10 µM [2],"Inhibition in cells (result in words: cytotoxicity) ([2]; N2a/K18ΔK280 cells, compound 10 μM, 5 days)",IC50 [3],"DC50 ([3]; 10 μM tau construct K19, 2.5 μM heparin, ThS fluorescence)"
1.2 µM,1.3 µM,"O=C(NNc1nc(-c2ccc([N+](=O)[O-])cc2)cs1)c1ccc(-c2ccccc2)cc1 [Comp. 7, N′-[4-(4-nitrophenyl)-1,3-thiazol-2-yl]-1,1′-biphenyl-4-carbohydrazide]",5.0%,69.7%,,,,
1 µM,1.9 µM,"O=C(NNc1nc(-c2ccc(N3CCCC3)cc2)cs1)c1ccc(-c2ccccc2)cc1 [Comp. 9, N′-[4-(4-pyrrolidin-1-ylphenyl)-1,3-thiazol-2-yl]-1,1′-biphenyl-4-carbohydrazide]",6.2%,60.5%,,,,
> 200 µM,> 200 µM,"O=C(NNc1nc(-c2ccccc2)cs1)c1ccc(-c2ccccc2)cc1 [Comp. 37, N′-(4-phenyl-1,3-thiazol-2-yl)-1,1′-biphenyl-4-carbohydrazide]",3.6%,,,,,
> 200 µM,> 200 µM,"O=C(NNc1nc(-c2ccc(Br)cc2)cs1)c1ccc(-c2ccccc2)cc1 [Comp. 39, N′-[4-(4-bromophenyl)-1,3-thiazol-2-yl]-1,1′-biphenyl-4-carbohydrazide]",4.9%,,,,,
127 µM,> 200 µM,"O=C(NNc1nc(-c2ccccc2)cs1)c1ccccc1F [Comp. 41, 2-fluoro-N′-(4-phenyl-1,3-thiazol-2-yl)benzohydrazide]",6.5%,,,,,
16.4 µM,> 200 µM,"O=C(NNc1nc(-c2ccccc2)cs1)c1ccc2ccccc2c1 [Comp. 42, N′-(4-phenyl-1,3-thiazol-2-yl)-2-naphthohydrazide]",8.2%,,,,,
> 200 µM,> 200 µM,"O=C(NNc1nc(-c2cc3ccccc3oc2=O)cs1)c1ccc(-c2ccccc2)cc1 [Comp. 47, N′-[4-(2-oxo-2H-chromen-3-yl)-1,3-thiazol-2-yl]-1,1′-biphenyl-4-carbohydrazide]",44.7%,,,,,
,> 200 µM,"Cc1nc(NNC(=O)c2ccc(-c3ccccc3)cc2)sc1-c1ccc(Br)cc1 [Comp. 64, N′-[5-(4-bromophenyl)-4-methyl-1,3-thiazol-2-yl]-1,1′-biphenyl-4-carbohydrazide]",8.9%,,,,,
